The values that follow come from publication PMC9594047, “Identification of the Allosteric Binding Site for Thiazolopyrimidine on the C-Type Lectin Langerin” (ACS Chemical Biology, 2022).

In general, Kd refers to a measure of binding affinity in units of concentration.

The target in assay [1] is T1, human Langerin (hLang) CRD wild type (Homo sapiens, UniProt Q9UJ71).
T1 construct: ranging from amino acids 193 - 328 and; His-tag (N); made in house; host or cells: E. coli BL21
The experiment in a line: 1H-15N HSQC NMR titration, hLang CRD wild type. Format: binding. Particulars: for 15N HSQC KD hLang (Human-WT) / Kd: hLang CRD wild type, from CSP trajectories, 298 K, pH 6; for Kd: read-out: 15N HSQC KD hLang (Human-WT). On the procedure: (§1) Protein expression and purification hLang and mLang CRD wild type and all the mutants, ranging from amino acids 193 - 328 and 194 - 331, were cloned from a codon-optimized Langerin gene for bacterial expression (GenScript, Piscataway, NJ, USA) into a pET-28a vector (GenScript, Piscataway, NJ, USA) carrying an N-terminal His-tag and a T7 promoter. All constructs were expressed in E. coli BL21 (ThermoFisher Scientific, Waltham, MA, USA) in LB medium or in M9 medium at 37 °C. Protein expression was induced by adding 1 mM IPTG (isopropyl β-D-1-thiogalactopyranoside) at an OD600 between 0.7 - 1 and were grown overnight at 37 °C. Bacteria were harvested by centrifugation at 4000 g for 30 mins. Cells were lysed in lysis buffer (50 mM Tris, 150 mM NaCl, 10 mM MgCl2, 0.1% Tween-20, pH 8) with 1 mg/mL lysozyme (Sigma Aldrich, St. Louis, MO, USA) and 100 μg/mL DNase I (Applichem, Darmstadt, Germany) for at least 3 h at room temperature or 4 °C overnight or sonicated 1 h with amplitude 55%. Inclusion bodies were harvested by centrifugation at 15000 g […]
(§2) Inclusion bodies were washed twice with lysis buffer and ultrapure water to remove cell debris and soluble proteins. Then inclusion bodies were denatured with 20 mL of denaturation buffer (6 M guanidinium hydrochloride in 100 mM Tris (pH 8)) with 0.01% β -mercaptoethanol for at least 1 h at 37 °C, shaking at 220 rpm. The supernatant was slowly diluted 1:10 with CTL refolding buffer (0.4 M L-arginine in 50 mM Tris, 20 mM NaCl, 0.8 mM KCl, pH 8.3) with 1 mM reduced glutathione (GSH) and 0.1 mM oxidized glutathion e (GSSG) while stirring at 4 °C for at least 48 h after centrifugation (15,000 x g, 90 min, 4 °C). The refolded protein solution was dialyzed against 5 L TBS buffer (50 mM Tris, 150 mM NaCl, 5 mM CaCl 2) and then centrifuged to remove precipitated protein (15,000 x g, 90 min, 4 °C). The supernatant was purified by Ni -NTA agarose […]
(§3) affinity chromatography (Thermo Fisher) and the fractions of the elution were pooled and dialyzed against MES buffer (25 mM MES, 40 mM NaCl, 5 mM CaCl2, pH 6). Precipitated protein was removed by centrifugation (15,000 x g, 90 min, 4 °C) and the supernatant was used for experiments. We then concentrated protein with 5 - 6 mg/mL as the final concentration.
(§4) 1H-15N HSQC NMR measurements and backbone resonance assignment
(§5) NMR assignment and 15N-HSQC NMR for CSP plot and KD calculations were performed on a 700 MHz Bruker Advance III spectrometer (Bruker, Billerica, MA, USA) equipped with a PRODIGY probe. For mLang CRD backbone assignment, we performed a series of standard triple resonance experiments HNCA, HNCACB, HN(CO)CA and HN(CO)CACB as Hanske et al. described.1 Data was analyzed by using CcpNmr 2.5.1.2 In total, 88% of the residues were unambiguously assigned.
(§6) Most of the unassigned residues are prolines or residues in the mobile loops near the CBS, as reported for similar protein for example human Langerin.1 For the sample preparation, we used 300 µM 15N and 13C labeled protein, which is in 25 mM MES, 40 mM NaCl, 5 mM CaCl2, pH 6 containing 100 μM DSS, 0.05% NaN3, and 10% D2O buffer. 1H–15N HSQC NMR titrations experiments were performed with 100 μM of Langerin CRD containing 50 μM 4,4-dimethyl-4-silapentane-1-sulfonic acid (DSS) as an internal reference, and 10% D2O. 128 increments and 4 - 16 transients were recorded at 298 K, depending on the protein concentration and the machine implemented. NMR titration data were processed and analyzed, as previously done in Hanske et al. described (2016).1 The protein sample was added stepwise for titration of the thiazolopyrimidine derivatives or peptides until the most solubility tolerance was reached as the final concentration. Step size according to expected KD varied.

Assay [2] addresses T2, murine Langerin (mLang) CRD wild type (Mus musculus, UniProt Q8VBX4).
T2 construct: 194 - 331, were cloned from a codon-optimized Langerin gene; His-tag (N); made in house; host or cells: E. coli BL21
T2 sequence (Q8VBX4 194-331): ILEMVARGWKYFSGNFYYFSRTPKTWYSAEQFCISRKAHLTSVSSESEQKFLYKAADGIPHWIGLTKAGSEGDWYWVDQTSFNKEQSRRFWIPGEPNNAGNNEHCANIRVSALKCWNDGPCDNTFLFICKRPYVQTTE
The experiment in a line: 1H-15N HSQC NMR titration, mLang CRD wild type. Format: binding. Particulars: from CSP trajectories, 298 K; for 15N HSQC KD mLang (Murine-WT): pH 6; for Kd: pH 6, read-out: 15N HSQC KD mLang (Murine-WT). As to the method:
as §1, §2, §3, §4, §5, §6

The target of another assay is T3, hLang M260S-S265Y (Homo sapiens, UniProt Q9UJ71, M260S/S265Y).
T3 construct: ranging from amino acids 193 - 328 and; His-tag (N); made in house; host or cells: E. coli BL21
T3 sequence (Q9UJ71 193-328 M260S/S265Y): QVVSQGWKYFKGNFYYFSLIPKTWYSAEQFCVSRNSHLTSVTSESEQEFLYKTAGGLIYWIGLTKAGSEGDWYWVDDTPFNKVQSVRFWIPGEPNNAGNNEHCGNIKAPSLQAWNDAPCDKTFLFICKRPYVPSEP
Nature of the assay: 1H-15N HSQC NMR titration, hLang CRD double mutant. The format is binding. Particulars: for Kd: hLang CRD M260S-S265Y mutant. As to the method:
as §1
Inclusion bodies were washed twice with lysis buffer and ultrapure water to remove cell debris and soluble proteins. […]
as §5
Most of the unassigned residues are prolines or residues in the mobile loops near the CBS, as reported for similar protein for example human Langerin.1 For the sample preparation, we used 300 µM 15N and 13C labeled protein, which is in 25 mM MES, 40 mM NaCl, 5 mM CaCl2, pH 6 containing 100 μM DSS, 0.05% NaN3, and 10% D2O buffer. […] 128 increments and 4 - 16 transients were recorded at 298 K, depending on the protein concentration and the machine implemented. […]

In the next assay the target is T4, mLang S263M-Y268S (Mus musculus, UniProt Q8VBX4, S263M/Y268S).
T4 construct: 194 - 331, were cloned from a codon-optimized Langerin gene; His-tag (N); made in house; host or cells: E. coli BL21
T4 sequence (Q8VBX4 194-331 S263M/Y268S): T2 sequence (Q8VBX4 194-331) with S70M, Y75S
Nature of the assay: 1H-15N HSQC NMR titration, mLang CRD double mutant. The format is binding, murine. Particulars: for Kd: mLang CRD S263M-Y268S mutant, read-out: 15N HSQC KD Murine-S263M-Y268S. As to the method:
as §1
Inclusion bodies were washed twice with lysis buffer and ultrapure water to remove cell debris and soluble proteins. Then inclusion bodies were denatured with 20 mL of denaturation buffer (6 M guanidinium hydrochloride in 100 mM Tris (pH 8)) with 0.01% β -mercaptoethanol for at least 1 h at 37 °C, shaking at 220 rpm. […]
as §5
as §6, with “1H–15N HSQC NMR titrations experiments were performed with 100 μM of Langerin CRD containing 50 μM 4,4-dimethyl-4-silapentane-1-sulfonic acid (DSS) as an internal reference, and 10% D2O.” left out, “Step size according to expected KD varied.” left out

Substitutions are numbered along the chain they refer to. Where a SMILES comes first, the peptide text is derived from it.

T1 sequence (Q9UJ71 193-328): as the sequence (Q9UJ71 193-328 M260S/S265Y) above, with S68M, Y73S counted along it

For the compound `COc1cc2c(cc1OC)CC(NC(=O)c1cnc3sccn3c1=O)C2` [Compound 6], the “15N HSQC KD hLang (Human-WT)” value in assay [1] was “no detectable binding and nb”. For the same compound, in assay [2], the “15N HSQC KD mLang (Murine-WT)” value is reported as “micromolar affinity” and the Kd was 230 ± 60 µM.

As for `N[C@@H](CO)C(=O)N[C@@H](CO)C(=O)N[C@@H](Cc1c[nH]c2ccccc12)C(=O)N[C@@H](CO)C(=O)O` [SSWS] (H-SSWS-OH), the Kd in assay [2] was 460 ± 30 µM.

As for `C[C@H](N)C(=O)N[C@@H](Cc1c[nH]c2ccccc12)C(=O)N[C@@H](CO)C(=O)O` [AWS] (H-Ala-Trp-Ser-OH), the Kd in assay [1] was 2400 ± 940 µM; in assay [2], 1600 ± 300 µM.

With `C[C@H](NC(=O)[C@@H](N)CO)C(=O)N[C@@H](Cc1c[nH]c2ccccc12)C(=O)N[C@@H](CO)C(=O)O` [SAWS] (H-SAWS-OH), in assay [1], the “15N HSQC KD hLang (Human-WT)” value is “high-micromolar affinity” and the Kd is 820 ± 130 µM. Besides, in assay [2], the “15N HSQC KD mLang (Murine-WT)” value is on record as “high-micromolar affinity” and the dissociation constant (Kd) was 670 ± 230 µM.

In the case of `Cc1sc2ncc(C(=O)O)c(=O)n2c1C` [Compound 4], the Kd in assay [1] is 900 ± 300 µM; in assay [2], 400 ± 140 µM.

Take `O=C(NCc1ccc2c(c1)OCO2)c1c(O)nc2sccn2c1=O` [Compound 7]: the “15N HSQC KD hLang (Human-WT)” value in assay [1] was “no detectable binding and nb”. Also, in assay [2], the “15N HSQC KD mLang (Murine-WT)” value is on record as “micromolar affinity” and the Kd turned out to be 280 ± 160 µM.

On to `O=C(NCCc1cn2c(n1)SCC2)c1cnc2sccn2c1=O` [Compound 3], for which the Kd was 110 ± 40 µM in assay [1] and 1140 ± 60 µM in assay [2].

Consider `O=C(O)c1cnc2sccn2c1=O` [Compound 1], for which the Kd in assay [1] amounted to 130 ± 40 µM; on hLang M260S-S265Y, 340 ± 220 µM; on mLang S263M-Y268S, 480 ± 340 µM; in assay [2], 1800 ± 600 µM. In assay [1] (hLang vs mLang wild type), the “fold higher affinity for hLang compared to mLang” value is listed as “more than 10 fold”. The “fold decrease in affinity to hLang M260S-S265Y compared to WT” value on hLang M260S-S265Y (mutant vs WT) stood at 3 fold. For the same compound, the “fold increase in affinity for mLang S263M-Y268S compared to WT” value at mLang S263M-Y268S (mutant vs WT) amounted to 3 fold.

For `Cc1csc2ncc(C(=O)O)c(=O)n12` [Compound 5], in assay [1], the “15N HSQC KD hLang (Human-WT)” value was “no detectable binding and nb”. In assay [2], the “15N HSQC KD mLang (Murine-WT)” value was “micromolar affinity” and the Kd is 610 ± 110 µM.

As for `COc1ccccc1CNC(=O)c1cnc2sccn2c1=O` [Compound 2], in assay [1], the “15N HSQC KD hLang (Human-WT)” value is “not detectable and no detectable binding and nb”. Moreover, the equilibrium dissociation constant (Kd) is 450 ± 280 µM at hLang M260S-S265Y, 1740 ± 160 µM on mLang S263M-Y268S and 160 ± 60 µM in assay [2]. Moreover, the “fold decrease in binding affinity to mLang S263M-Y268S compared to WT” value at mLang S263M-Y268S (mutant vs WT) is 10 fold. Moreover, the “15N HSQC KD mLang (Murine-WT)” value in assay [2] is listed as “micromolar affinity”.
